Results from patent US20240024488A1, “COMPOUNDS AND USES THEREOF” (Foghorn Therapeutics Inc., priority 2020, published 2024).

What was measured:
[1] = target: T1, HiBit-BRG1 fusion protein (Homo sapiens, UniProt P51532); experiment: HiBiT-BRG1 cell-based degradation assay (Nano-Glo HiBiT Lytic Detection, 24 h); conditions: HeLa cell line expressing HiBit-BRG1 and LgBit; for Dmax: read-out: BRG1 HiBit Degradation Maximum (%); for DC50: read-out: BRMG1 HiBit Degradation IC50
T1 construct: expressed in transfected cells
Outline: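 Luminescence from reconstituted NanoBiT luciferase after lytic detection served as read-out of remaining HiBit-BRG1 in stable HeLa cells, which also express LgBit. Cells were seeded at 5000 per well and incubated with compound for 24 h. DMSO and a 2 μM known degrader defined the control range.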

[2] = target: T2, HiBit-BRM fusion protein (Homo sapiens, UniProt P51531); experiment: HiBiT-BRM cell-based degradation assay (Nano-Glo HiBiT Lytic Detection, 24 h); conditions: HeLa cell line expressing HiBiT-BRM; for DC50: read-out: BRM HiBit Degradation IC50
T2 construct: expressed in transfected cells
Outline: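 Percent BRM loss was derived from HiBiT luminescence relative to DMSO-treated cells and cells given 2 μM of a known BRM/BRG1 degrader. Treatment lasted 24 h in HiBiT-BRM HeLa cells, with a top final concentration of 30 μM.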

T1 sequence (P51532 whole entry, the tested form may be a part): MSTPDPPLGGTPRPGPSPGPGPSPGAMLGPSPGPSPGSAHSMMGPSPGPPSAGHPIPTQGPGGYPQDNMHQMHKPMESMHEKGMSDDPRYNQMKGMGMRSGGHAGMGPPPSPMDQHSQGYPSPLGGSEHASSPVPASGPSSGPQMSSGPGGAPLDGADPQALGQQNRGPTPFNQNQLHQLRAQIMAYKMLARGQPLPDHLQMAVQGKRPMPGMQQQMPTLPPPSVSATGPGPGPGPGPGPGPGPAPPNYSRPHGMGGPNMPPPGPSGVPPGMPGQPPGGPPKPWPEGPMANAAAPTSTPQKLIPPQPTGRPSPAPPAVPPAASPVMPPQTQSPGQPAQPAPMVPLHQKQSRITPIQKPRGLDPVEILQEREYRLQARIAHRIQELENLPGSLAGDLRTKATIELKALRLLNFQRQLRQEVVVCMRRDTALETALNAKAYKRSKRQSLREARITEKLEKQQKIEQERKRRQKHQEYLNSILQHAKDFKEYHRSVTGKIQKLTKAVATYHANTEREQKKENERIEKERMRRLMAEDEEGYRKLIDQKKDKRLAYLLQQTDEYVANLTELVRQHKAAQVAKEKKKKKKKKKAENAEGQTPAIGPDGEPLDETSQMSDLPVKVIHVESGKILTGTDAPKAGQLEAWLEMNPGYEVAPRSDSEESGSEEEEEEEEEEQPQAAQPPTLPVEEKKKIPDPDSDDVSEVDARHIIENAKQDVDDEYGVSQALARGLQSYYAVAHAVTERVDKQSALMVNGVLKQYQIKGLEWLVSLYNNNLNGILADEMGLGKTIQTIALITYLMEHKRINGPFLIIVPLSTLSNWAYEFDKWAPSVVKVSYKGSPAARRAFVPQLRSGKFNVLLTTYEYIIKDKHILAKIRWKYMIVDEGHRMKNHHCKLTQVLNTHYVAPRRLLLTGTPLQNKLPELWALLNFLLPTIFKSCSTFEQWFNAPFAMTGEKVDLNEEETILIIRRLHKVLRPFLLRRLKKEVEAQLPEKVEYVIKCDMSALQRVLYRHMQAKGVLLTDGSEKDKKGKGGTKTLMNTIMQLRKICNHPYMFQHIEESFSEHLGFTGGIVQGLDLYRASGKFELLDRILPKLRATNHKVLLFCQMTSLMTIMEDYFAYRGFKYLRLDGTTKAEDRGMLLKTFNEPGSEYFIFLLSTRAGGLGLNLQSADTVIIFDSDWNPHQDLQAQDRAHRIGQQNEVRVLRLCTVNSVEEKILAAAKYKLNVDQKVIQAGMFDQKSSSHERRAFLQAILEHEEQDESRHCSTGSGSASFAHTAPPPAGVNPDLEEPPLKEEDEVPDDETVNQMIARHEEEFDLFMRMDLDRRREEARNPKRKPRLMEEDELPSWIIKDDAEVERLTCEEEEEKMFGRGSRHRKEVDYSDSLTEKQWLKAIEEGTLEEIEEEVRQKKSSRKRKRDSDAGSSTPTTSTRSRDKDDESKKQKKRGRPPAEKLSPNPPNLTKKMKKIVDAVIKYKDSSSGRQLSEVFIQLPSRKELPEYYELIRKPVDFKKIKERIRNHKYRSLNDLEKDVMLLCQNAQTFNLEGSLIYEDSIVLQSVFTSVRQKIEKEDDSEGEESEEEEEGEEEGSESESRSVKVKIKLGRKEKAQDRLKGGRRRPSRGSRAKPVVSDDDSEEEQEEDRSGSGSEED
T2 sequence (P51531 whole entry, the tested form may be a part): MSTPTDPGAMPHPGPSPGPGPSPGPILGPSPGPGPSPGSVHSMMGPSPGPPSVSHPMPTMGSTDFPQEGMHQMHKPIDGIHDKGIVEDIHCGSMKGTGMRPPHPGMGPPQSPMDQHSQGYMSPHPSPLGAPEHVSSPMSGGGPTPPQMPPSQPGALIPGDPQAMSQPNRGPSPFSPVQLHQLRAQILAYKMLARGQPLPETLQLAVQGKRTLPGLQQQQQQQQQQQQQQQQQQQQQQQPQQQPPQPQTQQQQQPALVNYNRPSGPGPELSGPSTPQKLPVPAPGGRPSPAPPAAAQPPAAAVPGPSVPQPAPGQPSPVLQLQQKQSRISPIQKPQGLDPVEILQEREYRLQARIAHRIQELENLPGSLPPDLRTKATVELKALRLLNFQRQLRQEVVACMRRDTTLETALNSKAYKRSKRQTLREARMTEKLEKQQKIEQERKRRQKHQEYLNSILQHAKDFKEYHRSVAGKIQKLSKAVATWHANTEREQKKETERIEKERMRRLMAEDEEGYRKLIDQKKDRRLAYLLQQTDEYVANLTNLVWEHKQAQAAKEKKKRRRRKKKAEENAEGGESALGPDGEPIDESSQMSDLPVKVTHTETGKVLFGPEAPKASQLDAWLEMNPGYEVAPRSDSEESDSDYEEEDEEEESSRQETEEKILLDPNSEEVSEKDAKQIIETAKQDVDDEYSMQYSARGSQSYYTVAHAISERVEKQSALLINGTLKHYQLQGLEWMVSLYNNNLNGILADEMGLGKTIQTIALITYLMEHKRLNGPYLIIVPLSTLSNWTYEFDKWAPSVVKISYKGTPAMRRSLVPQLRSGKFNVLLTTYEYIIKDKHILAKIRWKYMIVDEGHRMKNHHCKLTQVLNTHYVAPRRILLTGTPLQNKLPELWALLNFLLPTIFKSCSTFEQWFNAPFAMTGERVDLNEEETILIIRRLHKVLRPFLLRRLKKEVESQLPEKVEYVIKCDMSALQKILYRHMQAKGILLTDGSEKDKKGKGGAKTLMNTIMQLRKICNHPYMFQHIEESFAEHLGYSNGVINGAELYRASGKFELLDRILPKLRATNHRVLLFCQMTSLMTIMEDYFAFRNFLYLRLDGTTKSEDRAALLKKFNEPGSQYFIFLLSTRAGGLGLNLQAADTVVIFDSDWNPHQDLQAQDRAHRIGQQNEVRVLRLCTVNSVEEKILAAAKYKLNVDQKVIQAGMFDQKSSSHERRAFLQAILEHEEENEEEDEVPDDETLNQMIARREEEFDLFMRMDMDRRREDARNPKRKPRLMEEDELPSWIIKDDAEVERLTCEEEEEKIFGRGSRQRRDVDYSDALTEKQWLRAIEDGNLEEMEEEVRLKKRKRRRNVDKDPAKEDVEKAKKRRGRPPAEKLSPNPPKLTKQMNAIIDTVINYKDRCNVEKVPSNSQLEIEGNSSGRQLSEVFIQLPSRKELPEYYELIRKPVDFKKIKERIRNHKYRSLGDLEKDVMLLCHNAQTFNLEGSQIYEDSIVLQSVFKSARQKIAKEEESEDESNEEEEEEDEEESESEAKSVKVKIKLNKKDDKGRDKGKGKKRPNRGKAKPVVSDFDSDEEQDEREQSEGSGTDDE

Row | Dmax [1] | DC50 [2] | DC50 [1] | SMILES | BRM HiBit Degradation Maximum (%) [2]
1 | < 50% | > 100 nM | – | Cc1ncsc1-c1ccc([C@H](C)NC(=O)[C@@H]2C[C@@H](O)CN2C(=O)[C@@H](NC(=O)CCCCCCCCC(=O)N2CC(c3cc4cc(-c5ccccc5O)nnc4[nH]3)C2)C(C)(C)C)cc1 [Compound 1, (2S,4R)-4-hydroxy-1-((S)-2-(10-(3-(3-(2-hydroxyphenyl)-7H-pyrrolo[2,3-c]pyridazin-6-yl)azetidin-1-yl)-10-oxodecanamido)-3,3-dimethylbutanoyl)-N—((S)-1-(4-(4-methylthiazol-5-yl)phenyl)ethyl)pyrrolidine-2-carboxamide] | A (“A” indicates maximum degradation ≥ 75%)
2 | < 50% | > 100 nM | – | Cc1ncsc1-c1ccc(CNC(=O)[C@@H]2C[C@@H](O)CN2C(=O)[C@@H](NC(=O)CCCCCCCCC(=O)N2CC(c3cc4cc(-c5ccccc5O)nnc4[nH]3)C2)C(C)(C)C)cc1 [Compound 2, (2S,4R)-4-hydroxy-1-((S)-2-(10-(3-(3-(2-hydroxyphenyl)-7H-pyrrolo[2,3-c]pyridazin-6-yl)azetidin-1-yl)-10-oxodecanamido)-3,3-dimethylbutanoyl)-N-(4-(4-methylthiazol-5-yl)benzyl)pyrrolidine-2-carboxamide] | A (“A” indicates maximum degradation ≥ 75%)
3 | < 50% | > 1000 nM | – | Cc1ncsc1-c1ccc(CNC(=O)[C@@H]2C[C@@H](O)CN2C(=O)[C@@H](NC(=O)CCCCCCC(=O)N2CC(c3cc4cc(-c5ccccc5O)nnc4[nH]3)C2)C(C)(C)C)cc1 [Compound 3, (2S,4R)-4-hydroxy-1-((S)-2-(8-(3-(3-(2-hydroxyphenyl)-7H-pyrrolo[2,3-c]pyridazin-6-yl)azetidin-1-yl)-8-oxooctanamido)-3,3-dimethylbutanoyl)-N-(4-(4-methylthiazol-5-yl)benzyl)pyrrolidine-2-carboxamide] | B (“B” indicates maximum degradation ≥ 50%)
4 | < 50% | > 100 nM | – | Cc1ncsc1-c1ccc(CNC(=O)[C@@H]2C[C@@H](O)CN2C(=O)[C@@H](NC(=O)CCCCCCCCCCC(=O)N2CC(c3cc4cc(-c5ccccc5O)nnc4[nH]3)C2)C(C)(C)C)cc1 [Compound 4, (2S,4R)-4-hydroxy-1-((S)-2-(12-(3-(3-(2-hydroxyphenyl)-7H-pyrrolo[2,3-c]pyridazin-6-yl)azetidin-1-yl)-12-oxododecanamido)-3,3-dimethylbutanoyl)-N-(4-(4-methylthiazol-5-yl)benzyl)pyrrolidine-2-carboxamide] | A (“A” indicates maximum degradation ≥ 75%)
5 | < 50% | > 100 nM | – | Cc1ncsc1-c1ccc(CNC(=O)[C@@H]2C[C@@H](O)CN2C(=O)[C@@H](NC(=O)CCCCCCCCCC(=O)N2CC(c3cc4cc(-c5ccccc5O)nnc4[nH]3)C2)C(C)(C)C)cc1 [Compound 5, (2S,4R)-4-hydroxy-1-((S)-2-(11-(3-(3-(2-hydroxyphenyl)-7H-pyrrolo[2,3-c]pyridazin-6-yl)azetidin-1-yl)-11-oxoundecanamido)-3,3-dimethylbutanoyl)-N-(4-(4-methylthiazol-5-yl)benzyl)pyrrolidine-2-carboxamide] | A (“A” indicates maximum degradation ≥ 75%)
6 | > 75% | > 1000 nM | > 1000 nM | Cc1ncsc1-c1ccc(CNC(=O)[C@@H]2C[C@@H](O)CN2C(=O)[C@@H](NC(=O)CCCC(=O)N2CC(c3cc4cc(-c5ccccc5O)nnc4[nH]3)C2)C(C)(C)C)cc1 [Compound 6, (2S,4R)-4-hydroxy-1-((S)-2-(5-(3-(3-(2-hydroxyphenyl)-7H-pyrrolo[2,3-c]pyridazin-6-yl)azetidin-1-yl)-5-oxopentanamido)-3,3-dimethylbutanoyl)-N-(4-(4-methylthiazol-5-yl)benzyl)pyrrolidine-2-carboxamide] | B (“B” indicates maximum degradation ≥ 50%)
7 | > 50% | > 1000 nM | > 1000 nM | O=C1CCC(N2C(=O)c3cccc(OCCCCC(=O)N4CC(c5cc6cc(-c7ccccc7O)nnc6[nH]5)C4)c3C2=O)C(=O)N1 (stereo not shown) [Compound 7, 2-(2,6-dioxopiperidin-3-yl)-4-((5-(3-(3-(2-hydroxyphenyl)-7H-pyrrolo[2,3-c]pyridazin-6-yl)azetidin-1-yl)-5-oxopentyl)oxy)isoindoline-1,3-dione] | B (“B” indicates maximum degradation ≥ 50%)
8 | < 50% | > 1000 nM | – | O=C1CCC(N2C(=O)c3ccc(NCCCCCCCCC(=O)N4CC(c5cc6cc(-c7ccccc7O)nnc6[nH]5)C4)cc3C2=O)C(=O)N1 (stereo not shown) [Compound 9, 2-(2,6-dioxopiperidin-3-yl)-5-((9-(3-(3-(2-hydroxyphenyl)-7H-pyrrolo[2,3-c]pyridazin-6-yl)azetidin-1-yl)-9-oxononyl)amino) isoindoline-1,3-dione] | B (“B” indicates maximum degradation ≥ 50%)
9 | < 50% | > 1000 nM | – | Cc1ncsc1-c1ccc(CNC(=O)[C@@H]2C[C@@H](O)CN2C(=O)[C@@H](NC(=O)CCCCCCCC(=O)N2CC(c3cc4cc(-c5ccccc5O)nnc4[nH]3)C2)C(C)(C)C)cc1 [Compound 10, (2S,4R)-4-hydroxy-1-((S)-2-(9-(3-(3-(2-hydroxyphenyl)-7H-pyrrolo[2,3-c]pyridazin-6-yl)azetidin-1-yl)-9-oxononanamido)-3,3-dimethylbutanoyl)-N-(4-(4-methylthiazol-5-yl)benzyl)pyrrolidine-2-carboxamide] | B (“B” indicates maximum degradation ≥ 50%)
10 | < 50% | > 100 nM | – | Cc1ncsc1-c1ccc([C@H](C)NC(=O)[C@@H]2C[C@@H](O)CN2C(=O)[C@@H](NC(=O)CCCCCCCCCCCCCC(=O)N2CC(c3cc4cc(-c5ccccc5O)nnc4[nH]3)C2)C(C)(C)C)cc1 [Compound 11, (2S,4R)-4-hydroxy-1-((S)-2-(15-(3-(3-(2-hydroxyphenyl)-7H-pyrrolo[2,3-c]pyridazin-6-yl)azetidin-1-yl)-15-oxopentadecanamido)-3,3-dimethylbutanoyl)-N-((S)-1-(4-(4-methylthiazol-5-yl)phenyl)ethyl)pyrrolidine-2-carboxamide] | B (“B” indicates maximum degradation ≥ 50%)
11 | < 50% | > 100 nM | – | Cc1ncsc1-c1ccc([C@H](C)NC(=O)[C@@H]2C[C@@H](O)CN2C(=O)[C@@H](NC(=O)CCCCCCCCCCCCC(=O)N2CC(c3cc4cc(-c5ccccc5O)nnc4[nH]3)C2)C(C)(C)C)cc1 [Compound 12, (2S,4R)-4-hydroxy-1-((S)-2-(14-(3-(3-(2-hydroxyphenyl)-7H-pyrrolo[2,3-c]pyridazin-6-yl)azetidin-1-yl)-14-oxotetradecanamido)-3,3-dimethylbutanoyl)-N-((S)-1-(4-(4-methylthiazol-5-yl)phenyl)ethyl)pyrrolidine-2-carboxamide] | A (“A” indicates maximum degradation ≥ 75%)
12 | < 50% | > 100 nM | – | Cc1ncsc1-c1ccc([C@H](C)NC(=O)[C@@H]2C[C@@H](O)CN2C(=O)[C@@H](NC(=O)CCCCCCCCCCC(=O)N2CC(c3cc4cc(-c5ccccc5O)nnc4[nH]3)C2)C(C)(C)C)cc1 [Compound 13, (2S,4R)-4-hydroxy-1-((S)-2-(12-(3-(3-(2-hydroxyphenyl)-7H-pyrrolo[2,3-c]pyridazin-6-yl)azetidin-1-yl)-12-oxododecanamido)-3,3-dimethylbutanoyl)-N-((S)-1-(4-(4-methylthiazol-5-yl)phenyl)ethyl)pyrrolidine-2-carboxamide] | A (“A” indicates maximum degradation ≥ 75%)
13 | < 50% | – | – | Cc1ncsc1-c1ccc(CNC(=O)[C@@H]2C[C@@H](O)CN2C(=O)[C@@H](NC(=O)CCN2CC(c3cc4cc(-c5ccccc5O)nnc4[nH]3)C2)C(C)(C)C)cc1 [Compound 16, (2S,4R)-4-hydroxy-1-((S)-2-(3-(3-(3-(2-hydroxyphenyl)-7H-pyrrolo[2,3-c]pyridazin-6-yl)azetidin-1-yl)propanamido)-3,3-dimethylbutanoyl)-N-(4-(4-methylthiazol-5-yl)benzyl)pyrrolidine-2-carboxamide] | C (“C” indicates maximum degradation < 50%)
14 | < 50% | – | – | Cc1ncsc1-c1ccc(CNC(=O)[C@@H]2C[C@@H](O)CN2C(=O)[C@@H](NC(=O)CCCCCCCCCCCCC(=O)N2CC(c3cc4cc(-c5ccccc5O)nnc4[nH]3)C2)C(C)(C)C)cc1 [Compound 17, (2S,4R)-4-hydroxy-1-((S)-2-(14-(3-(3-(2-hydroxyphenyl)-7H-pyrrolo[2,3-c]pyridazin-6-yl)azetidin-1-yl)-14-oxotetradecanamido)-3,3-dimethylbutanoyl)-N-(4-(4-methylthiazol-5-yl)benzyl)pyrrolidine-2-carboxamide] | C (“C” indicates maximum degradation < 50%)

Row | SMILES | Dmax [1] | DC50 [2] | DC50 [1] | BRM HiBit Degradation Maximum (%) [2]
15 | O=C1CCC(N2C(=O)c3cccc(OCCCC(=O)N4CC(c5cc6cc(-c7ccccc7O)nnc6[nH]5)C4)c3C2=O)C(=O)N1 (stereo not shown) [Compound 8, 2-(2,6-dioxopiperidin-3-yl)-4-(4-(3-(3-(2-hydroxyphenyl)-7H-pyrrolo[2,3-c]pyridazin-6-yl)azetidin-1-yl)-4-oxobutoxy)isoindoline-1,3-dione] | > 75% | > 1000 nM | > 1000 nM | A (“A” indicates maximum degradation ≥ 75%)
